Source: patent US9907852B2, “Anticancer agent and side-effect-alleviating agent” (National University Corporation University of Toyama, priority 2014, dated 2018)

Tested on: pancreas cancer cell strain PANC-1
Assay: not given
Conditions: Non-Patent Document 1; cited from earlier work

In the case of `COc1cc(C[C@H]2C(=O)OC[C@@H]2Cc2ccc(OC)c(OC)c2)ccc1O` [arctigenin], the “removal of the viability of tumor cells in a low nutritional state” value is listed as “effective”.

Tested on: Miapaca-2 cells
Assay: Tumor size in model transplanted pancreas cancer, existing anticancer agents combined with Burdock Fruit extract (Test Example 6)
Format: in vivo, mice
Conditions: anticancer agent combined with GBS-01 750 mg/kg oral 5 days a week; about 4 weeks
Procedure: Miapaca-2 cells (5×10^6 cells/200 μl ) were subcutaneously transplanted under the armpit of BALB/cAJcl-nu/nu mice (CLEA Japan, Inc.), and after feeding of about 2 weeks those that grew to the size of about 100 mm^3 or about 600 mm^3 were selected and employed as the subject mice to be treated.
Thus prepared transplanted mice were divided into the respective groups, that is, an untreated group, a group administered an existing anticancer agent as a component having a variety of anticancer activities, a Burdock Fruit extract administered group and a group of combined administration of these agents, and the treatment was continued over about 4 weeks for 5 to 6 species of tumors in the respective groups. The existing anticancer agents used include Carboplatin (CBDCA, Bristol-Myers, peritoneal administration, 60 mg/kg once a week), Doxorubicin (Kyowa Hakko, peritoneal administration, 10 mg/kg twice a week), Oxaliplatin (Yakult, peritoneal administration, 8 mg/kg once a week), Everolimus (Novartis, oral administration, 5 mg/kg 5 times a week) , Bortezomib (Janssen Pharma, peritoneal administration, 1 mg/kg twice a week), Irinotecan (Yakult, peritoneal administration, 25 mg/kg twice a week), and Hydroxychloroquine (Sanofi, peritoneal administration, 100 mg/kg 5 times a week) . As for Burdock Fruit extract, 10% arctigenin-containing Burdock Fruit extract (Kracie Co., GBS-01) was used and orally administered at a dose of 750 mg/kg 5 days a week.
At intervals of 3 to 4 days, the mouse was fixed and the length (L), the minor axis (W) and the height (H) of tumor were measured by a precision digital vernier micrometer, from which the tumor size was calculated using the formula: Tumor size=4/3*pi*L/2*H/2*W/2(pi=3.14)
When the height cannot be measured, the formula: Tumor size=4/3*pi*L/2*(W/2)^2 was used for convenience.

Compared with `CCN(CCO)CCCC(C)Nc1ccnc2cc(Cl)ccc12` (centres unmarked) [hydroxychloroquine], `CC(C)C[C@H](NC(=O)[C@H](Cc1ccccc1)NC(=O)c1cnccn1)B(O)O` [bortezomib, Bortezomib] is lower in “tumor size reduced compared to a single preparation of Burdock Fruit extract” value (“tumor size reduced … of Burdock Fruit extract” for short): 1.9 times for the first, 1.8 times for the second.

`CO[C@H]1C[C@@H]2CC[C@@H](C)[C@@](O)(O2)C(=O)C(=O)N2CCCC[C@H]2C(=O)O[C@H]([C@H](C)C[C@@H]2CC[C@@H](OCCO)[C@H](OC)C2)CC(=O)[C@H](C)/C=C(\C)[C@@H](O)[C@@H](OC)C(=O)[C@H](C)C[C@H](C)/C=C/C=C/C=C/1C` [everolimus, Everolimus] and `CCc1c2c(nc3ccc(OC(=O)N4CCC(N5CCCCC5)CC4)cc13)-c1cc3c(c(=O)n1C2)COC(=O)[C@]3(O)CC` [irinotecan, Irinotecan] are the same in “tumor size reduced … of Burdock Fruit extract” value: 2.1 times for the first, 2.1 times for the second.

With `COc1cccc2c1C(=O)c1c(O)c3c(c(O)c1C2=O)C[C@@](O)(C(=O)CO)C[C@@H]3O[C@H]1C[C@H](N)[C@H](O)[C@H](C)O1` [doxorubicin, Doxorubicin] the “tumor size reduced … of Burdock Fruit extract” value was 1.4 times.

Going from `CCN(CCO)CCCC(C)Nc1ccnc2cc(Cl)ccc12` (centres unmarked) [hydroxychloroquine] to `CC(C)C[C@H](NC(=O)[C@H](Cc1ccccc1)NC(=O)c1cnccn1)B(O)O` [bortezomib, Bortezomib], the “tumor size reduced compared to a single preparation of the anticancer agent” value (“tumor size reduced … of the anticancer agent” below) falls from 2.5 times to 1.4 times.

Compared with `CO[C@H]1C[C@@H]2CC[C@@H](C)[C@@](O)(O2)C(=O)C(=O)N2CCCC[C@H]2C(=O)O[C@H]([C@H](C)C[C@@H]2CC[C@@H](OCCO)[C@H](OC)C2)CC(=O)[C@H](C)/C=C(\C)[C@@H](O)[C@@H](OC)C(=O)[C@H](C)C[C@H](C)/C=C/C=C/C=C/1C` [everolimus, Everolimus], `CCc1c2c(nc3ccc(OC(=O)N4CCC(N5CCCCC5)CC4)cc13)-c1cc3c(c(=O)n1C2)COC(=O)[C@]3(O)CC` [irinotecan, Irinotecan] is higher in “tumor size reduced … of the anticancer agent” value: 1.4 times for the first, 1.5 times for the second.

With `COc1cccc2c1C(=O)c1c(O)c3c(c(O)c1C2=O)C[C@@](O)(C(=O)CO)C[C@@H]3O[C@H]1C[C@H](N)[C@H](O)[C@H](C)O1` [doxorubicin, Doxorubicin] the “tumor size reduced … of the anticancer agent” value was “about 1.5 times”.

Tested on: PANC-1 (ATCC No. CRL-1469) cells
Assay: not given
Conditions: not given

First: Cc1cn([C@H]2C[C@H](N=[N+]=[N-])[C@@H](CO)O2)c(=O)[nH]c1=O [AZT]
Second: C[C@]12CC[C@H](OS(=O)(=O)O)CC1=CC[C@@H]1[C@@H]2CC[C@]2(C)C(=O)CC[C@@H]12 [DHEA-S]
The “Magnification of LD50 decrease” value of the first is higher: 4.67 for the first, 3.13 for the second.

Going from `Nc1nc(OCc2ccccc2)c2nc[nH]c2n1` [Benzylguanine] to `CC(C)[C@H](CO)Nc1nc(Nc2cccc(Cl)c2)c2ncn(C(C)C)c2n1` [Purvalanol A], the “Magnification of LD50 decrease” value falls from 8.24 to 1.71.

First: CCCCOc1cc(CC2CNC(=O)N2)ccc1OC (centres unmarked) [Ro-20-1724]
Second: c1cc(-c2cnn3cc(-c4ccc(OCCN5CCCCC5)cc4)cnc23)ccn1 [Dorsomorphin]
The “Magnification of LD50 decrease” value of the first is lower: 1.66 for the first, 6.14 for the second.

In the case of `CNC(=N)NCCC[C@H](N)C(=O)O` [L-NMMA], the “Magnification of LD50 decrease” value is reported as 1.72.

Tested on: not listed separately
Assay: Solubility in water
Format: physicochemical
Conditions: not given

With `COc1ccc(C[C@H]2COC(=O)[C@@H]2Cc2ccc(O[C@@H]3O[C@H](CO)[C@@H](O)[C@H](O)[C@H]3O)c(OC)c2)cc1OC` [arctiin] the solubility in water was “slightly soluble”.
In the case of `COc1cc(C[C@H]2C(=O)OC[C@@H]2Cc2ccc(OC)c(OC)c2)ccc1O` [arctigenin], the solubility in water is reported as “slightly soluble”.
